This note sets out measurements from US5629430A, “Trifluoromethylpyrroloindolecarboxylic acid ester and process for production thereof” (Kyorin Pharmaceutical Co., Ltd., priority 1992, dated 1997).

Test [1] relates to P388 mouse leukemia cells. Briefly: Activity against tumor cell growth (P388, MTT, 72 h). The test is classed as cell-based. To be noted: read-out: IC50 (50% growth inhibition concentration). Summed up: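 P388 cells at 1.5×10^5 cells/ml in RPMI1640 with 10% FBS, 2 mM glutamine and 5 μM 2-hydroxyethyldisulfide; DMSO-dissolved compound diluted in medium, 72 h at 37 °C, 5% CO2. MTT added for 3 h, formazan dissolved in HCl-isopropanol, A540 read. IC50 from absorbance ratio versus untreated cells.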

The test system of another test is P388 cells. Briefly: Antineoplastic activity, mice having P388 cells transplanted in abdominal cavity. To be noted: next day after transplantation, >=130% effective. The test is classed as in vivo, mouse (female, CDF1 strain). Here is the method:
(§1) The test compound was dissolved in dimethylsulfoxide, and the solution was adequately diluted with 10% Emulfore EL620(produced by Rhone Poulenc Co.) to prepare the test compound solution. The antineoplastic activity was evaluated as below.
To the abdominal cavity of a female mouse (CDF1 strain, 8 to 9 week age), 1×10^6 P388 cells were transplanted. Next day, the test medicine solution was injected intraperitonealy in a single dose. Five to eight mice were employed for the solvent-dosed control group, and two mice were employed for each of the dosed groups. The antineoplastic effect was evaluated by the ratio (T/C, %) of the average survival days of the dosed group (T) to the average survival days of the solvent-dosed control group(C). The T/C ratio of 130% or more is evaluated to be effective.
"Cured": Survived for 60 days or longer

For the next test, the system named is Sarcoma-180 cells. Briefly: Antineoplastic activity, mice having Sarcoma-180 cells transplanted subcutaneously. The test is classed as in vivo, mouse (female, CDR strain). The following applies: Mus musculus, Sarcoma-180, iv, 144 h, tumor weighed six days after dosage, read-out: T/C (average tumor weight, dosed vs. solvent-dosed control); for response vs control in vivo at 0.5 mg/kg: i.v. 0.5 mg/kg single dose; for response vs control in vivo at 0.25 mg/kg: i.v. 0.25 mg/kg single dose. On the procedure: as §1
To the lateral region of a female mouse (CDR strain, 5 to 6 week age), 3.6×10^6 to 5×10^6 Sarcoma-180 cells were transplanted subcutaneously. Next day, the test medicine solution was injected into the tail vein in a single dose. Eight to twelve mice were employed for the solvent-dosed control group, and five mice were employed for the dosed group. Six days after the dosage, the tumor was cut out, and the weight thereof was measured. The antineoplastic effect was evaluated by the ratio (T/C) of the average tumor weight of the dosed group (T) to the average tumor weight of the solvent-dosed control group (C).

For the next test, the system named is Colon-26 cells. Briefly: Antineoplastic activity, mice having Colon-26 cells transplanted subcutaneously. The class given is in vivo, mouse (female, CDF1 strain). To be noted: Mus musculus, Colon 26, iv, 168 h, tumor weighed one week after dosage, read-out: T/C (average tumor weight, dosed vs. solvent-dosed control); for response vs control in vivo at 0.5 mg/kg: i.v. 0.5 mg/kg single dose on sixth day; for response vs control in vivo at 0.25 mg/kg: i.v. 0.25 mg/kg single dose on sixth day. On the procedure: as §1
To the lateral region of a female mouse (CDF1 strain, 8 to 12 week age), 1×10^6 Colon-26 cells were transplanted subcutaneously. On the sixth day after the transplantation, the test medicine solution-was injected into the tail vein in a single dose. Seven to twelve mice were employed for the solvent-dosed control group, and five mice were employed for the dosed group. One week after the dosage, the tumor was cut out, and the weight thereof was measured. The antineoplastic effect was evaluated by the ratio (T/C) of the average tumor weight of the dosed group (T) to the average tumor weight of the solvent-dosed control group (C).

[2] abbreviates: P388 mouse leukemia cells, 72 h, 37° C., MTT.

Values after ≈ are worked out from the molar mass of the structure shown. Like-named read-outs stand apart in the source and are kept apart here.

`COC(=O)c1c(C(F)(F)F)[nH]c2c(O)cc3c(c12)C(CCl)CN3C(=O)c1cc2cc(OC)c(OC)c(OC)c2[nH]1` (centres unmarked) [Example 6, methyl 1-chloromethyl-5-hydroxy-7-trifluoromethyl-3-(5,6,7-trimethoxy-1H-indol-2-ylcarbonyl)-1,2,3,6-tetrahydropyrrolo[3,2-e]indole-8-carboxylate]: the IC50 in test [1] (setting [2]) is 0.24 ng/mL (≈ 0.412 nM). Also, the “T/C (average survival days, dosed vs. solvent-dosed control)” value in the test with P388 cells (i.p. 0.5 mg/kg single dose) is listed as 206%.

For the compound `COC(=O)c1c(C(F)(F)F)[nH]c2c(O)cc3c(c12)C(CCl)CN3C(=O)c1cc2cc(OC)ccc2[nH]1` (centres unmarked) [Example 8, Methyl 1-chloromethyl-5-hydroxy-3-(5-methoxy-1H-indol-2-ylcarbonyl)-7-trifluoromethyl-1,2,3,6-tetrahydropyrrolo[3,2-e]indole-8-carboxylate], in test [1] (setting [2]), the IC50 stood at 0.21 ng/mL (≈ 0.402 nM). Further, in the test on P388 cells (i.p. 1.0 mg/kg single dose), the “T/C (average survival days, dosed vs. solvent-dosed control)” value came out at 198%.

In the case of `COC(=O)c1c(C(F)(F)F)[nH]c2c(O)cc3c(c12)C(CCl)CN3C(=O)c1cc2cc(NC(=O)c3cc4ccccc4o3)ccc2[nH]1` (centres unmarked) [Example 10, Methyl 3-[5-[(benzofuran-2-ylcarbonyl)amino]-1H-indol-2-ylcarbonyl]-1-chloromethyl-5-hydroxy-7-trifluoromethyl-1,2,3,6-tetrahydropyrrolo[3,2-e]indole-8-carboxylate], the IC50 in test [1] (setting [2]) was 0.52 ng/mL (≈ 0.799 nM). The response vs control in vivo at 0.5 mg/kg in the test on Sarcoma-180 cells and in the test with Colon-26 cells was 15% throughout.

As for `COC(=O)c1c(C(F)(F)F)[nH]c2c(O)cc3c(c12)C(CCl)CN3C(=O)c1cc2cc(-c3cc4ccccc4o3)ccc2[nH]1` (centres unmarked) [Example 12], the response vs control in vivo at 1 mg/kg in the test with Sarcoma-180 cells (i.v. 1.0 mg/kg single dose) is 11%; with Colon-26 cells (i.v. 1.0 mg/kg single dose on sixth day), 16%.

With `COC(=O)c1c(C(F)(F)F)[nH]c2c(O)cc3c(c12)C(CCl)CN3C(=O)c1cc2cc(NC(=O)c3cc4cc(OC)c(OC)c(OC)c4[nH]3)ccc2[nH]1` (centres unmarked) [Example 13, Methyl 1-chloromethyl-5-hydroxy-7-trifluoromethyl-3-[5-[(5,6,7-trimethoxy-1H-indol-2-ylcarbonyl)amino]-1H-indol-2-ylcarbonyl]-1,2,3,6-tetrahydropyrrolo[3,2-e]indole-8-carboxylate], the IC50 in test [1] (setting [2]) was 0.21 ng/mL (≈ 0.284 nM). The response vs control in vivo at 0.25 mg/kg in the test with Sarcoma-180 cells was determined as 11%; in the test with Colon-26 cells, 17%.

For `COC(=O)c1c(C(F)(F)F)[nH]c2c(O)cc3c(c12)C(CCl)CN3C(=O)c1cc2cc(NC(=O)c3cc4c(OC)c(OC)c(OC)cc4[nH]3)ccc2[nH]1` (centres unmarked) [Example 14, Methyl 1-chloromethyl-5-hydroxy-7-trifluoromethyl-3-[5-[(4,5,6-trimethoxy1H-indol-2-ylcarbonyl)amino]-1H-indol-2-ylcarbonyl]-1,2,3,6-tetrahydropyrrolo[3,2-e]indole-8-carboxylate], in test [1] (setting [2]), the IC50 was 0.1 ng/mL (≈ 0.135 nM). Moreover, the response vs control in vivo at 0.5 mg/kg in the test on Sarcoma-180 cells came to 7%; in the test on Colon-26 cells, 5%.

Turning to `COC(=O)c1c(C(F)(F)F)[nH]c2c(O)cc3c(c12)C(CCl)CN3C(=O)c1cc2cc(NC(=O)c3cnc4ccccc4c3)ccc2[nH]1` (centres unmarked) [Example 16, Methyl 1-chloromethyl-5-hydroxy-3-[5-[(quinoline-3-ylcarbonyl)amino]-1H-indol-2-ylcarbonyl]-7-trifluoromethyl-1,2,3,6-tetrahydropyrrolo[3,2-e]indole-8-carboxylate], the IC50 in test [1] (setting [2]) came out at 0.16 ng/mL (≈ 0.242 nM). Also, the response vs control in vivo at 0.5 mg/kg in the test with Sarcoma-180 cells is 17%; in the test on Colon-26 cells, 16%.

For the compound `COC(=O)c1c(C(F)(F)F)[nH]c2c(O)cc3c(c12)C(CCl)CN3C(=O)c1cc2cc(NC(=O)c3cc4ccccc4cn3)ccc2[nH]1` (centres unmarked) [Example 17, Methyl 1-chloromethyl-5-hydroxy-3-[5-[(isoquinolin-3-ylcarbonyl)amino]-1H-indol-2-ylcarbonyl]-7trifluoromethyl-1,2,3,6-tetrahydropyrrolo[3,2-e]indole-8-carboxylate], in test [1] (setting [2]), the IC50 is 0.09 ng/mL (≈ 0.136 nM). In addition, the response vs control in vivo at 0.25 mg/kg was determined as 25% in the test on Sarcoma-180 cells and 18% with Colon-26 cells.

In the case of `COC(=O)c1c(C(F)(F)F)[nH]c2c(O)cc3c(c12)C(CCl)CN3C(=O)c1cc2cc(NC(=O)c3cc4c(OC)c(OC)c(OC)cc4cn3)ccc2[nH]1` (centres unmarked) [Example 18, Methyl 1-chloromethyl-5-hydroxy-7-trifluoromethyl-3-[5-[(5,6,7-trimethoxyisoquinolin-3-ylcarbonyl)amino]-1H-indol-2-ylcarbonyl]-1,2,3,6-tetrahydropyrrolo[3,2-e]indole-8-carboxylate], the IC50 in test [1] (setting [2]) was found to be 0.09 ng/mL (≈ 0.12 nM). Also, the response vs control in vivo at 0.25 mg/kg with Sarcoma-180 cells was determined as 25%; in the test with Colon-26 cells, 7%.

For the compound `COC(=O)c1c(C(F)(F)F)[nH]c2c1C13CC1CN(C(=O)c1cc4cc(OC)c(OC)c(OC)c4[nH]1)C3=CC2=O` (centres unmarked) [Example 20, methyl 6-trifluoromethyl-2-(5,6,7-trimethoxy1H-indol-2-ylcarbonyl)-1,2,8,8a-tetrahydrocyclopropa[c]-pyrrolo[3,2e]indole-4 (5H)-one-7-carboxylate], the IC50 in test [1] (setting [2]) came to 0.24 ng/mL (≈ 0.44 nM). In the test on P388 cells (i.p. 0.125 mg/kg single dose), the “T/C (average survival days, dosed vs. solvent-dosed control)” value was found to be 194%. The response vs control in vivo at 0.25 mg/kg worked out at 36% in the test with Sarcoma-180 cells (*(n = 4)) and 15% with Colon-26 cells.

With `COC(=O)c1c(C(F)(F)F)[nH]c2c1C13CC1CN(C(=O)c1cc4cc(OC)ccc4[nH]1)C3=CC2=O` (centres unmarked) [Example 22, Methyl 2-(5-methoxy-1H-indol-2-ylcarbonyl)-6-trifluoromethyl-1,2,8,8a-tetrahydrocyclopropa[c]pyrrolo[3,2-e]indole-4 (5H)-one-7-carboxylate], the IC50 in test [1] (setting [2]) stood at 0.23 ng/mL (≈ 0.474 nM). For the same compound, the “T/C (average survival days, dosed vs. solvent-dosed control)” value in the test with P388 cells (i.p. 0.125 mg/kg single dose) is on record as 169%.

Take `COC(=O)c1c(C(F)(F)F)[nH]c2c(O)cc3c(c12)C(CBr)CN3C(=O)c1cc2cc(OC)c(OC)c(OC)c2[nH]1` (centres unmarked) [Example 34, methyl 1-bromomethyl-5-hydroxy-7-trifluoromethyl-3-(5,6,7-trimethoxy-1H-indol-2-ylcarbonyl)-1,2,3,6-tetrahydropyrrolo[3,2e]indole-8-carboxylate]: in test [1] (setting [2]), the IC50 was 0.15 ng/mL (≈ 0.239 nM). Besides, the “T/C (average survival days, dosed vs. solvent-dosed control)” value in the test with P388 cells (i.p. 0.125 mg/kg single dose) is listed as 189%. In addition, the response vs control in vivo at 0.25 mg/kg in the test on Sarcoma-180 cells was found to be 37%.

On to `COC(=O)c1c(C(F)(F)F)[nH]c2c(O)cc3c(c12)C(CBr)CN3C(=O)c1cc2cc(NC(=O)c3cc4ccccc4[nH]3)ccc2[nH]1` (centres unmarked) [Example 36, Methyl 1-bromomethyl-5-hydroxy-3-[5-[(1H-indol-2-ylcarbonyl)amino]-1H-indol-2-ylcarbonyl)-7-trifluoromethyl-1,2,3,6-tetrahydropyrrolo[3,2-e]indole-8-carboxylate], for which, in test [1] (setting [2]), the IC50 worked out at 1.3 ng/mL (≈ 1.87 nM). The “T/C (average survival days, dosed vs. solvent-dosed control)” value in the test on P388 cells (i.p. 0.125 mg/kg single dose) was 384%. For the same compound, the response vs control in vivo at 0.25 mg/kg in the test with Sarcoma-180 cells was found to be 14%.

Regarding `COC(=O)c1c(C(F)(F)F)[nH]c2c(OC(=O)N3CCN(C)CC3)cc3c(c12)C(CCl)CN3C(=O)c1cc2cc(OC)c(OC)c(OC)c2[nH]1` (centres unmarked) [Example 46], in test [1] (Mus musculus, P388, 72 h), the IC50 was determined as 22 ng/mL (≈ 31.1 nM). In addition, in the test with P388 cells (i.p. 4 mg/kg single dose), the “T/C (average survival days, dosed vs. solvent-dosed control)” value came to 221%.
